From ChEMBL document CHEMBL6087462, “Cuminaldehyde Potentiates Antiproteolytic Peptide Efficacy via Parallel Pathways of Enhanced Inner Membrane-Damaging Activity and Inhibition of Bacterial Energy Metabolism” (J Med Chem, 2025)

How the values were obtained:
[1] = tested on: Escherichia coli; assay: Synergistic antimicrobial activity against Escherichia coli UB1005 assessed as fractional inhibitory concentration index in presence of citronellal by checkerboard broth microdilution assay; type: functional
[2] = tested on: Escherichia coli; assay: Antimicrobial activity against Escherichia coli 078 assessed as cuminaldehyde MIC by CLSI based broth microdilution method; type: functional; conditions: 78
[3] = tested on: Staphylococcus aureus; assay: Synergistic antimicrobial activity against Staphylococcus aureus 29213 assessed as fractional inhibitory concentration index in presence of thymol by checkerboard broth microdilution assay; type: functional
[4] = tested on: Staphylococcus aureus; assay: Synergistic antimicrobial activity against Staphylococcus aureus 43300 assessed as fractional inhibitory concentration index in presence of perillaldehyde by checkerboard broth microdilution assay; type: functional
[5] = tested on: Escherichia coli; assay: Synergistic antimicrobial activity against Escherichia coli K99 assessed as fractional inhibitory concentration index in presence of citronellal by checkerboard broth microdilution assay; type: functional
[6] = tested on: Enterococcus faecalis; assay: Synergistic antimicrobial activity against Enterococcus faecalis 29212 assessed as fractional inhibitory concentration index in presence of thymol by checkerboard broth microdilution assay; type: functional
[7] = tested on: Salmonella typhimurium; assay: Synergistic antimicrobial activity against Salmonella typhimurium 14028 assessed as fractional inhibitory concentration index in presence of perillaldehyde by checkerboard broth microdilution assay; type: functional, Salmonella enterica subsp. enterica serovar Typhimurium
[8] = tested on: Staphylococcus aureus; assay: Antimicrobial activity against Staphylococcus aureus ATCC 29213 assessed as reduction in microbial growth by CLSI based broth microdilution method; type: functional
[9] = tested on: Staphylococcus epidermidis; assay: Synergistic antimicrobial activity against Staphylococcus epidermidis 12228 assessed as fractional inhibitory concentration index in presence of perillaldehyde by checkerboard broth microdilution assay; type: functional
[10] = tested on: Staphylococcus aureus; assay: Synergistic antimicrobial activity against Staphylococcus aureus 29213 assessed as fractional inhibitory concentration index in presence of citronellal by checkerboard broth microdilution assay; type: functional
[11] = tested on: Escherichia coli; assay: Antimicrobial activity against Escherichia coli UB 1005 assessed as reduction in microbial growth by CLSI based broth microdilution method; type: functional
[12] = tested on: Staphylococcus aureus; assay: Synergistic antimicrobial activity against Staphylococcus aureus ATCC 25923 assessed as fractional inhibitory concentration by checkerboard broth microdilution assay; type: functional
[13] = tested on: Salmonella typhimurium; assay: Synergistic antimicrobial activity against Salmonella typhimurium ATCC 7731 assessed as fractional inhibitory concentration by checkerboard broth microdilution assay; type: functional, Salmonella enterica subsp. enterica serovar Typhimurium
[14] = tested on: Staphylococcus aureus; assay: Antimicrobial activity against Staphylococcus aureus ATCC 25923 assessed as reduction in microbial growth in presence of cuminaldehyde by CLSI based broth microdilution method; type: functional
[15] = tested on: Enterococcus faecalis; assay: Synergistic antimicrobial activity against Enterococcus faecalis 29212 assessed as fractional inhibitory concentration index in presence of carvacrol by checkerboard broth microdilution assay; type: functional
[16] = tested on: Pseudomonas aeruginosa; assay: Synergistic antimicrobial activity against Pseudomonas aeruginosa 27853 assessed as fractional inhibitory concentration index in presence of thymol by checkerboard broth microdilution assay; type: functional
[17] = tested on: Staphylococcus aureus; assay: Antimicrobial activity against Staphylococcus aureus ATCC 25923 assessed as cuminaldehyde MIC by CLSI based broth microdilution method; type: functional
[18] = tested on: Escherichia coli; assay: Synergistic antimicrobial activity against Escherichia coli 25922 assessed as fractional inhibitory concentration index in presence of citronellal by checkerboard broth microdilution assay; type: functional
[19] = tested on: Staphylococcus aureus; assay: Synergistic antimicrobial activity against Staphylococcus aureus 29213 assessed as fractional inhibitory concentration index in presence of perillaldehyde by checkerboard broth microdilution assay; type: functional
[20] = tested on: Pseudomonas aeruginosa; assay: Synergistic antimicrobial activity against Pseudomonas aeruginosa 27853 assessed as fractional inhibitory concentration index in presence of carvacrol by checkerboard broth microdilution assay; type: functional
[21] = tested on: Escherichia coli; assay: Drug resistance, ratio of MIC for Escherichia coli ATCC 25922 after 30 passages to MIC for Escherichia coli ATCC 25922 […] after initial exposure; type: functional
[22] = tested on: Escherichia coli; assay: Synergistic antimicrobial activity against Escherichia coli K88 assessed as fractional inhibitory concentration index in presence of thymol by checkerboard broth microdilution assay; type: functional
[23] = tested on: Staphylococcus aureus; assay: Synergistic antimicrobial activity against Staphylococcus aureus 25923 assessed as fractional inhibitory concentration index in presence of citronellal by checkerboard broth microdilution assay; type: functional
[24] = tested on: Escherichia coli; assay: Synergistic antimicrobial activity against Escherichia coli ATCC 25922 assessed as fractional inhibitory concentration by checkerboard broth microdilution assay; type: functional
[25] = tested on: Escherichia coli; assay: Synergistic antimicrobial activity against Escherichia coli 078 assessed as fractional inhibitory concentration index in presence of citral by checkerboard broth microdilution assay; type: functional, 78
[26] = tested on: Salmonella typhimurium; assay: Synergistic antimicrobial activity against Salmonella typhimurium 7731 assessed as fractional inhibitory concentration index in presence of carvacrol by checkerboard broth microdilution assay; type: functional, Salmonella enterica subsp. enterica serovar Typhimurium
[27] = tested on: Pseudomonas aeruginosa; assay: Synergistic antimicrobial activity against Pseudomonas aeruginosa 27853 assessed as fractional inhibitory concentration index in presence of citral by checkerboard broth microdilution assay; type: functional
[28] = tested on: Staphylococcus aureus; assay: Synergistic antimicrobial activity against Staphylococcus aureus 25923 assessed as fractional inhibitory concentration index in presence of carvacrol by checkerboard broth microdilution assay; type: functional
[29] = tested on: Staphylococcus epidermidis; assay: Antimicrobial activity against Staphylococcus epidermidis ATCC 12228 assessed as cuminaldehyde MIC by CLSI based broth microdilution method; type: functional
[30] = tested on: Escherichia coli; assay: Synergistic antimicrobial activity against Escherichia coli K99 assessed as fractional inhibitory concentration index in presence of cuminaldehyde by checkerboard broth microdilution assay; type: functional
[31] = tested on: Staphylococcus epidermidis; assay: Synergistic antimicrobial activity against Staphylococcus epidermidis ATCC 12228 assessed as fractional inhibitory concentration by checkerboard broth microdilution assay; type: functional
[32] = tested on: Staphylococcus epidermidis; assay: Synergistic antimicrobial activity against Staphylococcus epidermidis 12228 assessed as fractional inhibitory concentration index in presence of thymol by checkerboard broth microdilution assay; type: functional
[33] = tested on: Salmonella typhimurium; assay: Synergistic antimicrobial activity against Salmonella typhimurium 7731 assessed as fractional inhibitory concentration index in presence of citral by checkerboard broth microdilution assay; type: functional, Salmonella enterica subsp. enterica serovar Typhimurium
[34] = tested on: Staphylococcus epidermidis; assay: Synergistic antimicrobial activity against Staphylococcus epidermidis 12228 assessed as fractional inhibitory concentration index in presence of cuminaldehyde by checkerboard broth microdilution assay; type: functional
[35] = tested on: Salmonella typhimurium; assay: Synergistic antimicrobial activity against Salmonella typhimurium 7731 assessed as fractional inhibitory concentration index in presence of citronellal by checkerboard broth microdilution assay; type: functional, Salmonella enterica subsp. enterica serovar Typhimurium
[36] = tested on: Salmonella typhimurium; assay: Antimicrobial activity against Salmonella typhimurium ATCC 7731 assessed as reduction in microbial growth by CLSI based broth microdilution method; type: functional, Salmonella enterica subsp. enterica serovar Typhimurium; conditions: Salmonella enterica
[37] = tested on: Escherichia coli; assay: Antimicrobial activity against Escherichia coli ATCC 25922 assessed as reduction in microbial growth by CLSI based broth microdilution method; type: functional
[38] = tested on: Pseudomonas aeruginosa; assay: Synergistic antimicrobial activity against Pseudomonas aeruginosa 27853 assessed as fractional inhibitory concentration index in presence of cuminaldehyde by checkerboard broth microdilution assay; type: functional
[39] = tested on: Enterococcus faecalis; assay: Antimicrobial activity against Enterococcus faecalis ATCC 29212 assessed as reduction in microbial growth by CLSI based broth microdilution method; type: functional
[40] = tested on: Escherichia coli; assay: Synergistic antimicrobial activity against Escherichia coli K99 assessed as fractional inhibitory concentration index in presence of citral by checkerboard broth microdilution assay; type: functional
[41] = Synergistic antimicrobial activity against Salmonella enterica subsp. enterica serovar Pullorum 7913 assessed as fractional inhibitory concentration index in presence of perillaldehyde by checkerboard broth microdilution assay; type: functional
[42] = tested on: Salmonella typhimurium; assay: Synergistic antimicrobial activity against Salmonella typhimurium 7731 assessed as fractional inhibitory concentration index in presence of perillaldehyde by checkerboard broth microdilution assay; type: functional, Salmonella enterica subsp. enterica serovar Typhimurium
[43] = tested on: Escherichia coli; assay: Antimicrobial activity against Escherichia coli 078 assessed as reduction in microbial growth in presence of cuminaldehyde by CLSI based broth microdilution method; type: functional; conditions: 78

SMILES: CC[C@H](C)[C@H](NC(=O)[C@@H](NC(=O)[C@@H](CCCNC(=N)N)NC(=O)[C@H](C)NC(=O)[C@H](C)NC(=O)[C@@H](N)Cc1cccc2ccccc12)[C@@H](C)CC)C(=O)N[C@@H](CC(C)C)C(=O)N[C@H](CCCNC(=N)N)C(=O)N[C@@H](Cc1c[nH]c2ccccc12)C(=O)N[C@H](CCCNC(=N)N)C(=O)N[C@@H](Cc1ccccc1)C(=O)N[C@@H](CCCNC(=N)N)C(=O)O
- fractional inhibitory concentration index (FICI) [1]: 0.266
- MIC [2]: 1020 µg/mL
- fractional inhibitory concentration index (FICI) [3]: 0.25
- fractional inhibitory concentration index (FICI) [4]: 0.75
- fractional inhibitory concentration index (FICI) [5]: 0.516
- fractional inhibitory concentration index (FICI) [6]: 0.75
- fractional inhibitory concentration index (FICI) [7]: 0.254
- MIC [8]: 16 µg/mL
- fractional inhibitory concentration index (FICI) [9]: 0.375
- fractional inhibitory concentration index (FICI) [10]: 0.94
- MIC [11]: 16 µg/mL
- FIC [12]: 0.063
- FIC [13]: 0.063
- MIC [14]: 8 µg/mL
- fractional inhibitory concentration index (FICI) [15]: 0.375
- fractional inhibitory concentration index (FICI) [16]: 0.25
- MIC [17]: 256 µg/mL
- fractional inhibitory concentration index (FICI) [18]: 0.25
- fractional inhibitory concentration index (FICI) [19]: 0.25
- fractional inhibitory concentration index (FICI) [20]: 0.5
- Ratio [21]: 2
- fractional inhibitory concentration index (FICI) [22]: 0.313
- fractional inhibitory concentration index (FICI) [23]: 0.25
- FIC [24]: 0.125
- fractional inhibitory concentration index (FICI) [25]: 0.094
- fractional inhibitory concentration index (FICI) [26]: 0.5
- fractional inhibitory concentration index (FICI) [27]: 0.141
- fractional inhibitory concentration index (FICI) [28]: 0.375
- MIC [29]: 256 µg/mL
- fractional inhibitory concentration index (FICI) [30]: 0.375
- FIC [31]: 0.25
- fractional inhibitory concentration index (FICI) [32]: 0.75
- fractional inhibitory concentration index (FICI) [33]: 0.141
- fractional inhibitory concentration index (FICI) [34]: 0.375
- fractional inhibitory concentration index (FICI) [35]: 0.254
- MIC [36]: 8 µg/mL
- MIC [37]: 4 µg/mL
- fractional inhibitory concentration index (FICI) [38]: 0.156
- MIC [39]: 8 µg/mL
- fractional inhibitory concentration index (FICI) [40]: 0.375
- fractional inhibitory concentration index (FICI) [41]: 0.375
- fractional inhibitory concentration index (FICI) [42]: 0.254
- MIC [43]: 2 µg/mL
